Usually melting point stands for the temperature, or range, at which the solid turns liquid. As for `Cc1nn(-c2ccc(C(F)(F)F)cn2)cc1COc1cc(CCC(=O)O)n(C)n1`, the melting point was 154 to 155 °C.
With `N#Cc1nn(-c2c(Cl)cc(C(F)(F)F)cc2Cl)cc1C1C=CCCCC1` (stereo not drawn), the melting point was in the range of 106 to 107 °C.
In the case of `CS(=O)(=O)Nc1ccc([N+](=O)[O-])cc1C(=O)C1CCCCC1` it was 178 to 179 °C; in that of `CCOC(=O)CC(c1ccccc1)N(N)C(=O)c1cc(C(=O)OCc2ccccc2)ccc1OCCOC` (racemic), 139 to 140 °C; in that of `CC(C)(C)c1cccc(C(=O)Nc2ccccc2C(=O)NCCc2ncc[nH]2)c1`, 205 to 210 °C.
The figure for `O=Cc1cc2c3ccccc3ccc2c2ccccc12` is 167 to 169 °C.
The figure for `CSC1=Nc2c(C)ccnc2N(C2CC2)c2ncccc21` is 173 to 177 °C.
In turn, `Cc1cccc2nc(C(C)(C)NC(=O)COC3c4ccccc4-c4ccccc43)oc(=O)c12` gave a melting point of 162 to 163 °C.
In turn, `CCCCCCCCCCC(O)C(=O)N[C@@H](CCCC)CCC(=O)O` (stereo partly drawn) came in with a melting point of 53 to 55 °C.
With `CCC1CC2C3CCC4=CC(=O)CCC4C3CCC2(C)C1O` (stereo not drawn), the melting point lay within 150 to 152 °C.
The figure for `CCC(CC)c1ccc(Cl)c2nc3n(c12)CCCCN3c1ccc(Cl)cc1` is 133 to 135 °C; for `COC(=O)Nc1nc(C)c(-c2nc3ccccc3c(=O)n2-c2ccccc2Cl)s1` it is 243 to 245 °C.
`CC1(C)OC(=O)C(C(=O)Nc2ccc(Cl)c(Cl)c2)=C(O)O1` returned a melting point of 132 to 134 °C.
Regarding `CCNc1cccnc1N1CCN(C(=O)c2ccc(C(=O)O)cn2)CC1`, the melting point was in the range of 155 to 157 °C.
`O=c1oc2ncccc2n1CCBr` came in with a melting point of 109 to 110 °C.
The figure for `O=C(NCCCc1ccncc1)N(C1CCCCC1)C1CCCCC1` is 143 to 146 °C.
The figure for `O=C1C(c2cc3c(cc2O)OCCO3)c2c(F)cccc2N1C(c1ccccc1)c1ccccc1` (stereo not drawn) is 115 to 118 °C; for `O=c1c2ccccc2ncn1CCN1CCC(Nc2nc3ccccc3n2Cc2ccc(F)cc2)CC1` it is 191 °C.
For `Cc1nn(C(C)(C)C)c(N)c1C#N`, the melting point lay within 156 to 157 °C.
With `OCCCSCCSCCCO`, the melting point is 52 °C.
In the case of `CCc1nn2c(-c3cccc(OC)c3)ccnc2c1C#N` it was 118 to 119 °C.
Regarding `CC(C)C(=O)Nc1nn(C)c2c1sc1c(Cl)cccc12`, the melting point fell in the range of 218 to 219 °C.
In the case of `COc1ccc2c(c1)CC(=O)NC2c1ccccc1Cl` (stereo not drawn) it was 203 to 205 °C; in that of `COc1nc(Cl)nc(Nc2ccc(OC(=O)C(C)(C)Br)cc2)n1`, 107 to 108 °C; in that of `Cc1sc2c(c1C)C(c1ccc(Cl)cc1)=NC(N)c1nnc(C)n1-2` (stereo not drawn), 192 to 197 °C.
For the compound `O=C(c1ccc(SC2SCC(O)C(O)C2O)cc1)C(F)(F)F` (stereo not drawn), the melting point was in the range of 133 to 134 °C.
In the case of `COC(=O)c1c(Cc2ccc(C(=O)NC(C)(C)CC(=O)N(C)C)cc2)c(=O)c2ccc(Cl)cc2n1-c1ccccc1` it was 84.1 to 95.5 °C.
The figure for `O=C1Nc2ccccc2SCC1c1ccc(Cl)cc1` (stereo not drawn) is 180 °C; for `CCC1(CC)c2cc(CO)c(CO)cc2C(CC)(CC)N1Cc1ccccc1` it is 155 to 158 °C; for `CN(C)c1nc2c(c(=O)[nH]1)CC(S(=O)(=O)c1ccccc1)CC2` (stereo not drawn) it is 249 °C.
`O=C(Nc1csc(-c2ccncc2)n1)Nc1cccc2c1C1CCCCN1C2=O` (stereo not drawn) gave a melting point of 152 °C.
In the case of `CC(C)Nc1nc(-n2cc(C(=O)O)c(=O)c3cc(F)c(N4CC(N)C4)c(Cl)c32)c(F)cc1F` it was 220 to 223 °C; in that of `CNc1nc(Br)cn2cc(C(N)=O)nc12`, 312 °C; in that of `O=C1Nc2ccc(C(c3ccc(Cl)cc3)n3ccnc3)cc2C(c2cccc(Cl)c2)N1` (stereo not drawn), 177 °C.
The figure for `CC(=O)C1=C(C)N=C(c2ccccc2)NC1c1cccc([N+](=O)[O-])c1` (stereo not drawn) is 154 to 155 °C; for `Cn1c(CO)cnc1[N+](=O)[O-]` it is 142 to 144 °C.
In the case of `O=C(COc1ccccc1)Nc1c(Cl)ccc2nc(N3CC[C@@H](O)C3)ccc12` it was 233 to 235 °C; in that of `CCOC(=O)c1cn(CCF)c2nc(SCC)c(F)cc2c1=O`, 271 to 273 °C; in that of `CC(=O)NCC(=O)N1CC(=O)NC1(C)C`, 214 to 215 °C.
Turning to `COc1ccc(CNC(=O)[C@@H](NC(=O)[C@H](NCc2ccc(OC)c(OC)c2)[C@H](O)[C@H](Cc2ccccc2)NC(=O)OC(C)(C)C)C(C)C)c(O)c1`, the melting point turned out to be 144 °C.
Compound `CCCCCCCCCCCCC/C=C(\C(=O)Nc1ccc(C(=O)OC)cc1)c1ccc2c(c1)C(C)(C)CCC2(C)C` had a melting point of 93 to 94 °C.
`CCOC(=O)C(NC(=O)CNC(=O)CC)C(=O)OCC` returned a melting point of 120 to 122 °C.
In the case of `CCOc1cccc(C)c1S(=O)(=O)NC(=O)n1nc(OCC)n(C)c1=O` it was 160 °C; in that of `CN(C)C1CCc2c(ccc(O)c2C(N)=O)C1` (stereo not drawn), 65 to 66 °C.
In the case of `C=Cc1c(C(=O)OC)nc(-c2ccc(Cl)cc2)c(F)c1N` it was 81 to 83 °C; in that of `O=C(NC1CCN(CCc2ccc([N+](=O)[O-])cc2)CC1)c1ccccc1`, 209 to 216 °C; in that of `CCOC(=O)C(O)Cc1ccc(OCCNC(=O)c2ccc(-c3ccccn3)cc2)cc1` (stereo not drawn), 97 to 99 °C.
The compound `O=C1c2ccccc2C(=O)N1CC(=O)N1c2ccccc2N(c2ccccc2)C(=O)C2CCCC21` (stereo not drawn) gave a melting point of 272 to 273 °C.
The compound `O=C(NC(Cc1ccc(OCc2ccccc2)cc1)C(=O)O)c1cn2nc(SCc3ccccc3)ccc2n1` (stereo not drawn) yielded a melting point of 178 to 179 °C.
In the case of `COc1cc2c(cc1OC)C1CC(=O)C3CCCCC3N1CC2` (stereo not drawn) it was 129 to 141 °C; in that of `COc1ccc2[nH]cc(S(=O)(=O)c3ccccc3)c2n1`, 223 to 225 °C.
The figure for `O=C(O)Cn1sc2ccccc2c1=O` is 236 to 238 °C.
The figure for `CC(=O)Nc1ccc(C(=O)c2c(N)sc3c2CCN(Cc2ccccc2)C3)cc1` is 119 to 120 °C; for `CN(CCC(=O)O)S(=O)(=O)c1c(Cl)cccc1Cl` it is 115 °C.
In turn, `CN(Cc1cc(C(F)(F)F)cc(C(F)(F)F)c1)C(=O)c1ncc2ccccc2c1-c1ccccc1` returned a melting point of 139 to 140 °C.
On to `O=P1(c2ccc(Cl)cc2)c2ccccc2CN1c1ccccc1` (stereo not drawn), for which the melting point fell in the range of 180 to 182 °C.
`CC(C)CC1Cc2cc(OCC(=O)O)c(Cl)c(Cl)c2C1=O` (stereo not drawn) displayed a melting point of 192 °C.
In the case of `Sc1nc(-c2ccc(Cl)cc2)c(-c2cccs2)[nH]1` it was 274 to 276 °C; in that of `CC(C)(C)C(=O)Nc1ncc(Cl)cc1C=O`, 169 to 171 °C; in that of `C=CCn1c(S)nc2c(cnn2C)c1=O`, 171 to 174 °C.
The figure for `CCCc1nc(N)c(C(=O)OC)[nH]1` is 133 to 136 °C; for `Cc1cc(Oc2ccc(NC(=O)Nc3ccc(N(CCCl)CCCl)cc3)cc2)c2cc3c(cc2n1)OCO3` it is 217 to 218 °C.
As to `CCOc1ncc(N)cc1C(=O)O`, the melting point lay within 260 to 262 °C.
In turn, `COc1ccc(CC(=O)O)cc1C(C)(C)C` returned a melting point of 93 to 94 °C.
`Nc1c(Cl)cc(S(=O)(=O)C(F)(F)F)cc1[N+](=O)[O-]` had a melting point of 138 to 139 °C.
The figure for `CCC(OCc1ccc(-c2ccc(Cl)cc2)cc1)(C(=O)O)c1ccccc1` (stereo not drawn) is 128 to 130 °C.
The figure for `O=C(O)Cc1ccc2c(c1)CCC(C(F)(F)F)N2` (stereo not drawn) is 107 to 108 °C; for `COc1cccc2c(C(F)(F)F)cc(N3CCNCC3)nc12` it is 130 °C.
The figure for `c1ccc2c(c1)CCN(c1ccncc1)C2` is 95 to 96 °C.
Compound `CCC(c1ccccc1)c1n[nH]c2c1c(=O)n(-c1ccccc1)c1ncccc21` (stereo not drawn) yielded a melting point of 233 to 235 °C.
The figure for `C=C(CN(C)C)C(O)c1ncc2c(c1O)COC2c1cccc(Cl)c1Cl` (stereo not drawn) is 180 to 184 °C.
In the case of `Nc1ccccc1NS(=O)(=O)c1cc(C(=O)O)cc(NCc2ccccc2)c1Oc1ccccc1` it was 113 to 116 °C; in that of `O=C(Nc1c(C(O)(C(F)(F)F)C(F)(F)F)ccc2ccccc12)c1ccc(F)cc1`, 135 to 136 °C.
In the case of `C[C@H](N[C@@H](CCc1ccccc1)C(=O)O)C(=O)N1C(=O)N(C)C[C@H]1C(=O)O` it was 240 °C; in that of `COc1cc(C(=O)Nc2c(Cl)cc3c(Br)n[nH]c3c2C(=O)NC(C)C)n(-c2ncccc2Cl)n1`, 217 to 218 °C.
Turning to `CCn1ccc2nc(N3CCN(Cc4ccccc4)CC3)ncc2c1=O`, the melting point was in the range of 116 to 118 °C.
`NNC(=O)c1nn(Cc2ccc(Cl)cc2Cl)c2ccccc12` showed a melting point of 161 to 162 °C.
In the case of `CCC(Oc1cc(Cl)cc(Cl)c1)C(=O)NCc1ccccc1C` (stereo not drawn) it was 135 to 137 °C; in that of `COC(=O)[C@@H]1c2ccccc2C[C@@H]1O`, 72.5 to 73.5 °C; in that of `Cc1cc(CCC(=O)O)nc(-c2nc(=O)c3ccc(Cl)cc3s2)c1`, 232 to 233 °C.
The compound `COC(=O)C1c2ccc(OC)cc2SC1c1ccc(OC)cc1` (stereo not drawn) came in with a melting point of 98.3 to 99.8 °C.
Regarding `COc1ccc(C=O)cc1C`, the melting point stood at 120 °C.
In the case of `Cc1cn(-c2cccc(C(=O)CC(=O)Nc3cc(-c4ccccc4F)ccc3NC(=O)OC(C)(C)C)c2)c(C)n1` it was 145 °C; in that of `CSc1cc2nnc(C)n2c(C)n1`, 201 to 203 °C.
The figure for `CC(C)C[C@H](NC(=O)CCC1CCCCC1)C(=O)N[C@@H](Cc1ccccc1)C(=O)CSCc1ccco1` is 116 to 118 °C.
In the case of `CCCCNC(=O)[C@@H]1C[C@]2(NC(=O)N(CCCN3CCC(O)CC3)C2=O)c2cc(F)ccc2O1` it was 86 to 88 °C; in that of `COC(=O)c1c(C(=O)OC)c2n(c1C)Cc1ccccc1C2`, 152 to 154 °C; in that of `CC(C)(C)c1cc(C=C2SCN(CCN)C2=O)cc(C(C)(C)C)c1O`, 176 to 178 °C.

(Values after a melting point compilation (Tetko et al.; mined from patent text by program, amines drawn as free bases though some values may be those of a salt).)
